From US4345984A, “Novel prostaglandin analogues and process for making same” (The Procter & Gamble Company, priority 1981, dated 1982)
Read-outs that look alike come from different tables or passages of the source.

Tested on: stomach mucosa
Assay: cytoprotective activity in rats (ethanol-induced stomach mucosa lesions)
Assay type: in vivo, Sprague-Dawley rats
Details: for response vs control in vivo at 5 mg/kg / inhibition in vivo at 5 mg/kg: Rattus norvegicus, 1 h; for response vs control in vivo at 5 mg/kg / inhibition in vivo at 5 mg/kg / % Protection: 5 mg per kg oral, half hour before absolute ethanol 10 ml per kg oral; for response vs control in vivo at 5 mg/kg: average lesion length as % of control animals; for inhibition in vivo at 5 mg/kg: lesions vs control, read-out: LESIONS % reduction; for cytoprotective activity (in words): comparison of enantiomers and racemate, Table III; for % Protection: optically pure compounds of Example XIX
Protocol: A number of the 7-oxa prostanoic acid derivatives has been tested for cytoprotective activity in rats. In this test, Sprague-Dawley rats are fasted for 24 hours prior to the pretreatment. The pretreatment is oral administration of a 5 mg per kg body weight dose of the prostanoid in 2.5 ml of a vehicle consisting of Tween 80 (0.75%) and the balance water. The control animals are given 2.5 ml of the vehicle, without prostanoid. A half hour after the pretreatment, absolute ethanol is administered orally to the animals, in a dose of 10 ml per kg body weight. One hour later the animals are sacrificed, their stomachs dissected out, opened along the greater curvature and the mucose examined for lesions. The average lesion length is expressed as percentage of the average lesion length found in the stomach mucosa of control animals.
Importantly, this test measures the active cytoprotective properties of the prostanoids, independent of the gastric secretion inhibition that these compounds may or may not show. The test is discussed more fully by Robert et al., Gastroenterology 77 (1979) 433, incorporated herein by reference.
methyl-7-oxa-9-oxo-Prostanoate derivatives were tested for cytoprotective properties. The compounds differed with respect to the nature of the C13 -C14 bond (triple, cis or trans double, or single), the substituent(s) at the 15-position and at the 16-position. […]
The optically pure compounds of Example XIX were tested for cytoprotective activity. The following results were obtained (Table III).

[1] = methyl-7-oxa-9-alpha-hydroxy prost-13,14-ynoate derivatives
[2] = 7-oxa-9-oxo-methyl prostanoate derivatives

**Q.** Which response vs control in vivo at 5 mg/kg [1] does the source give for `CCCCC(C)(C)C(O)C#C[C@H]1CC[C@H](O)[C@@H]1OCCCCCC(=O)OC` (relative stereo) here?
**A.** 83%

**Q.** What about the inhibition in vivo at 5 mg/kg [1] of the same molecule?
**A.** 17%

**Q.** Which results are given for `CCCCCC(=O)C#C[C@H]1CC[C@H](O)[C@@H]1OCCCCCC(=O)O` (relative stereo)?
**A.** response vs control in vivo at 5 mg/kg [1]: 7%; inhibition in vivo at 5 mg/kg [1]: 93%

**Q.** `CCCCCC(O)/C=C\[C@H]1CCC(=O)[C@@H]1OCCCCCC(=O)OC` (relative stereo) [cis (R,S)OH H,H (7-oxa-9-oxo), methyl-15-hydroxy-7-oxa-9-oxo-cis-prost-13-14-enoate] was tested. Which response vs control in vivo at 5 mg/kg [2] did it give?
**A.** 31%

**Q.** What about the inhibition in vivo at 5 mg/kg [2] of the same molecule?
**A.** 69%

**Q.** What does the source list for `CCCCCC(C)(O)/C=C\[C@H]1CCC(=O)[C@@H]1OCCCCCC(=O)OC` (relative stereo) [cis (R,S)OH,Me H,H (7-oxa-9-oxo)]?
**A.** response vs control in vivo at 5 mg/kg [2]: 71%; inhibition in vivo at 5 mg/kg [2]: 29%

**Q.** What does the source list for `CCCCCC(=O)/C=C\[C@H]1CCC(=O)[C@@H]1OCCCCCC(=O)OC` (relative stereo) [cis oxo H,H (7-oxa-9-oxo), methyl-9,15-dioxo-7-oxa-cis-prost-13,14-enoate]?
**A.** response vs control in vivo at 5 mg/kg [2]: 113%; inhibition in vivo at 5 mg/kg [2]: -13%

**Q.** How did the response vs control in vivo at 5 mg/kg [1] turn out when `CCCCCC(O)C#C[C@H]1CC[C@H](O)[C@@H]1OCCCCCC(=O)OC` (relative stereo) [methyl-9-alpha-hydroxy-15-hydroxy-7-oxa-Prost-13,14-ynoate] was run?
**A.** 93%

**Q.** And the inhibition in vivo at 5 mg/kg [1]?
**A.** 7%

**Q.** Which results are given for `CCCCCC(C)(O)CC[C@H]1CCC(=O)[C@@H]1OCCCCCC(=O)OC` (relative stereo) [single (R,S)OH,Me H,H (7-oxa-9-oxo)]?
**A.** response vs control in vivo at 5 mg/kg [2]: 67%; inhibition in vivo at 5 mg/kg [2]: 33%

**Q.** With `CCCCCC(=O)CC[C@H]1CCC(=O)[C@@H]1OCCCCCC(=O)OC` (relative stereo) [single oxo H,H (7-oxa-9-oxo)] as the molecule, how does the response vs control in vivo at 5 mg/kg [2] read?
**A.** 128%

**Q.** What about the inhibition in vivo at 5 mg/kg [2] of the same molecule?
**A.** -28%

**Q.** `CCCCCC(C)(O)/C=C/[C@H]1CCC(=O)[C@@H]1OCCCCCC(=O)OC` (relative stereo) [trans (R,S)OH,Me H,H (7-oxa-9-oxo)] was tested. Which response vs control in vivo at 5 mg/kg [2] did it give?
**A.** 54%

**Q.** What about the inhibition in vivo at 5 mg/kg [2] of the same molecule?
**A.** 46%

**Q.** What does the source list for `CCCCCC(=O)/C=C/[C@H]1CCC(=O)[C@@H]1OCCCCCC(=O)OC` (relative stereo) [trans oxo H,H (7-oxa-9-oxo)]?
**A.** response vs control in vivo at 5 mg/kg [2]: 118%; inhibition in vivo at 5 mg/kg [2]: -18%

**Q.** How did the response vs control in vivo at 5 mg/kg [2] turn out when `CCCCCC(O)C#C[C@H]1CCC(=O)[C@@H]1OCCCCCC(=O)OC` (relative stereo) [triple (R,S)OH H,H (7-oxa-9-oxo), methyl 15-hydroxy-7-oxa-9-oxo-prost-13,14-ynoate] was run?
**A.** 31%

**Q.** What about the inhibition in vivo at 5 mg/kg [2] of the same molecule?
**A.** 69%

**Q.** With `CCCCCC(C)(O)C#C[C@H]1CCC(=O)[C@@H]1OCCCCCC(=O)OC` (relative stereo) [triple (R,S)OH,Me H,H (7-oxa-9-oxo)] as the molecule, how does the response vs control in vivo at 5 mg/kg [2] read?
**A.** 82%

**Q.** What about the inhibition in vivo at 5 mg/kg [2] of the same molecule?
**A.** 18%

**Q.** Which results are given for `CCCCCCC#C[C@H]1CC[C@H](O)[C@@H]1OCCCCCC(=O)OC` (relative stereo) [triple H,H H,H (7-oxa-9-alpha-hydroxy)]?
**A.** response vs control in vivo at 5 mg/kg [1]: 90%; inhibition in vivo at 5 mg/kg [1]: 10%

**Q.** Which results are given for `CCCCCCC#C[C@H]1CCC(=O)[C@@H]1OCCCCCC(=O)OC` (relative stereo) [triple H,H H,H (7-oxa-9-oxo)]?
**A.** response vs control in vivo at 5 mg/kg [2]: 81%; inhibition in vivo at 5 mg/kg [2]: 19%

**Q.** `CCCCCC(=O)C#C[C@H]1CC[C@H](O)[C@@H]1OCCCCCC(=O)OC` (relative stereo) [triple oxo H,H (7-oxa-9-alpha-hydroxy), methyl 9-alpha-hydroxy-7-oxa-15-oxo-prost-13,14-ynoate] was tested. Which response vs control in vivo at 5 mg/kg [1] did it give?
**A.** 20%

**Q.** What about the inhibition in vivo at 5 mg/kg [1] of the same molecule?
**A.** 80%

**Q.** How did the response vs control in vivo at 5 mg/kg [2] turn out when `CCCCCC(=O)C#C[C@H]1CCC(=O)[C@@H]1OCCCCCC(=O)OC` (relative stereo) [triple oxo H,H (7-oxa-9-oxo), methyl-9,15-dioxo-7-oxa-prost-13,14-ynoate] was run?
**A.** 4%

**Q.** And the inhibition in vivo at 5 mg/kg [2]?
**A.** 96%

**Q.** What about the “cytoprotective activity (in words)” value of the same molecule?
**A.** the same

**Q.** Which results are given for `CCCCC(C)(C)C(=O)C#C[C@H]1CCC(=O)[C@@H]1OCCCCCC(=O)OC` (relative stereo) [triple oxo Me,Me (7-oxa-9-oxo)]?
**A.** response vs control in vivo at 5 mg/kg [2]: 16%; inhibition in vivo at 5 mg/kg [2]: 84%

**Q.** With `CCCCC[C@H](O)C#CC1CCC(=O)C1OCCCCCC(=O)OC` (stereo partly drawn) [(18), methyl-(S)-15-hydroxy-7-oxa-9-oxo-prost-13,14-ynoate] as the molecule, how does the “cytoprotective activity (in words)” value read?
**A.** high cytoprotective activity

**Q.** And the “% Protection” value?
**A.** 96%

**Q.** For `CCCCC[C@@H](O)C#CC1CCC(=O)C1OCCCCCC(=O)OC` (stereo partly drawn) [(19), methyl-(R)-15-hydroxy-7-oxa-9-oxo-prost-13,14-ynoate], which “% Protection” value is on record?
**A.** -34%
